{"source": "patent US20030045501A1", "about": "“Use of atazanavir in HIV therapy” (priority 2001, published 2003)", "key": {"[1]": {"details": "human, in vivo", "excerpt": "In clinical studies carried out on 98 HIV-positive patients who have taken atazanavir for one year, no increases in plasma LDL-cholesterol or triglycerides were observed. Thus, atazanavir is particularly useful in the treatment of HIV-positive patients who have elevated plasma LDL-cholesterol and/or triglyceride levels. It can be used as monotherapy or as part of a “cocktail” which would include other antiretroviral drugs such as reverse transcriptase inhibitors, non-nucleoside reverse transcriptase inhibitors, and other HIV protease inhibitors."}, "HIV [2]": {"system": "HIV", "experiment": "Phase II randomized study atazanavir vs nelfinavir: anti-HIV activity (viral load)", "format": "in vivo", "details": "atazanavir 200, 400 or 500 mg once daily, monotherapy two weeks then with stavudine and didanosine; treatment-naive patients", "method": "In a Phase II randomized study, the safety and anti-HIV activity of three once daily doses of atazanavir (200 mg, 400 mg and 500 mg) was compared with 750 mg of the protease inhibitor, nelfinavir dosed three times daily. Twenty-one patients received nelfinavir in combination with stavudine and didanosine, while atazanavir was administered both as monotherapy (for two weeks) and then in combination with stavudine and didanosine to 78 treatment-naive (no prior anti-HIV therapy) patients with HIV viral loads >2000 copies per milliliter (c/mL)."}, "[3]": {"design": "species or system human", "details": "in vivo", "method": "(§1) In another two-stage, randomized three-arm Phase II study, the antiviral activity and metabolic effects of atazanavir at two different doses (400 mg or 600 mg) was compared to ritonavir, each in combination with saquinavir over 48 weeks. The protease inhibitors were administered in combination with two nucleoside reverse transcriptase inhibitors selected from didanosine, stavudine, lamivudine or zidovudine. The selection of reverse transcriptase inhibitors (used in combination as didanosine+stavudine, stavudine+lamivudine, didanosine+zidovudine, or lamivudine+zidovudine) was based on the patient's phenotypic sensitivity and the physician's choice at the time of administration. The regimens were as follows: […]\n(§2) atazanavir 400 mg QD+saquinavir 1200 mg QD+2 nucleoside reverse transcriptase inhibitors atazanavir 600 mg QD+saquinavir 1200 mg QD+2 nucleoside reverse transcriptase inhibitors ritonavir 400 mg BID+saquinavir 400 mg BID+2 nucleoside reverse transcriptase inhibitors Patients were anti-retroviral-experienced with a treatment history of receiving a minimum of 24 weeks of a protease inhibitor-containing or non-nucleoside reverse transcriptase inhibitor-containing combination regimen. Stage 1 was to randomize approximately 75 subjects to assess the safety and antiviral activity of the regimens. […]"}, "HIV [4]": {"system": "HIV", "experiment": "Phase II three-arm study atazanavir vs ritonavir, each with saquinavir + 2 NRTIs: antiviral activity", "format": "in vivo", "details": "atazanavir groups vs ritonavir", "method": "as §1, §2"}, "CYP3A": {"system": "CYP3A", "experiment": "Inhibition of cytochrome P450 3A enzyme", "format": "biochemical", "excerpt": "Similarly, appropriate dosing of other HIV protease inhibitors to be used in combination with atazanavir can be calculated."}, "[5]": {"details": "saquinavir dosed at 1200 mg TID; at steady-state; cited from earlier work"}}}
{"compound": "COC(=O)N[C@H](C(=O)N[C@@H](Cc1ccccc1)[C@@H](O)CN(Cc1ccc(-c2ccccn2)cc1)NC(=O)[C@@H](NC(=O)OC)C(C)(C)C)C(C)(C)C", "note": "[atazanavir]", "values": [{"measurement": "increases in plasma LDL-cholesterol", "setting": "[1]", "value": "no increases"}, {"measurement": "increases in plasma triglycerides", "setting": "[1]", "value": "no increases"}, {"measurement": "reductions in viral load compared to the nelfinavir-treated patients", "setting": "HIV [2]", "value": "at least comparable"}, {"measurement": "LDL-cholesterol elevation over baseline", "setting": "[3]", "value": "not elevated"}, {"measurement": "antiviral efficacy through week 12, compared to ritonavir", "setting": "HIV [4]", "value": "similar"}, {"measurement": "Ki", "setting": "CYP3A", "value": 2400, "unit": "nM"}]}
{"compound": "Cc1c(O)cccc1C(=O)N[C@@H](CSc1ccccc1)[C@H](O)CN1C[C@H]2CCCC[C@H]2C[C@H]1C(=O)NC(C)(C)C", "note": "[nelfinavir]", "values": [{"measurement": "increase of the exposure of saquinavir", "setting": "[5]", "value": 392, "unit": "%"}]}
